18 molecules from patent US12617762B2, “Carboxy derivatives with antiinflamatory properties” (Sitryx Therapeutics Limited, priority 2019, dated 2026) can be followed below.

By IC50 is commonly meant the concentration needed to halve the response being measured. High values mean a need for much substance, low ones inhibition by little substance. For orientation: hepatocyte CLint means a measure of how fast metabolising enzymes remove a compound, apart from limits set by blood flow. As a reminder, the half-life is how long it takes for the measured level to halve.

The subject of data set [1] is IL-1β cytokine output from THP-1s. Put plainly: THP-1 AlphaLISA IL-1β cytokine inhibition assay. The format is cell-based. The conditions noted are these: Homo sapiens, THP-1, differentiated THP-1 cells, LPS then nigericin. The protocol:
Measuring Inhibitory Effects on IL-1β Cytokine Output from THP-1s
The cytokine inhibition profiles of compounds of formula (I) were determined in a differentiated THP-1 cell assay. All assays were performed in RPMI-1640 growth medium (Gibco), supplemented with 10% fetal bovine serum (FBS; Gibco), 1% penicillin-streptomycin and 1% sodium pyruvate unless specified otherwise. The IL-1β cytokine inhibition assay was run in a background of differentiated THP-1 cells as described below. All reagents described were from Sigma-Aldrich unless specified otherwise. Compounds were prepared as 10 mM DMSO stocks.
THP-1 cells were expanded as a suspension up to 80% confluence in appropriate growth medium. Cells were harvested, suspended, and treated with an appropriate concentration of phorbol 12-myristate 13-acetate (PMA) over a 72 hr period (37° C./5% CO2).
Following 72 hrs of THP-1 cell incubation, cellular medium was removed and replaced with fresh growth media containing 1% of FBS. Working concentrations of compounds were prepared separately in 10% FBS treated growth medium and pre-incubated with the cells for 30 minutes (37° C./5% CO2). Following the 30 minute compound pre-incubation, THP-1s were treated with an appropriate concentration of LPS and the cells were subsequently incubated for a 24 hr period (37° C./5% CO2). An appropriate final concentration of Nigericin was then dispensed into the THP-1 plates and incubated for 1 hour (37° C./5% CO2) before THP-1 supernatants were harvested and collected in separate polypropylene 96-well holding plates.
Reagents from an IL-1β and IL-6 commercial kit (Perkin Elmer) were prepared and run according to the manufacturer's instructions. Subsequently, fluorescence signal detection in a microplate reader was measured (EnVision® Multilabel Reader, Perkin Elmer).
Percentage inhibition was calculated per cytokine by normalising the sample data to the high and low controls used within each plate (+/− LPS respectively).
On the technique in general: Alpha assays give light when donor and acceptor beads are brought close together.

The nature of data set [2]: Hepatocyte stability assay, mouse. The settings on record: mouse, hepatocytes; for hepatocyte CLint at 10 μM: Hepatocyte stability Clint; for half-life at 10 μM: Hepatocyte stability T½. The format is in vitro ADME. An excerpt:
(§1) Defrosted cryo-preserved hepatocytes (viability >70%) were used to determine the metabolic stability of a compound via calculation of intrinsic clearance (CIint; a measure of the removal of a compound from the liver in the absence of blood flow and cell binding). Clearance data are particularly important for in vitro work as they can be used in combination with in vivo data to predict the half-life and oral bioavailability of a drug.
(§2) The metabolic stability in hepatocytes assay involves a time-dependent reaction using both positive and negative controls. The cells were pre-incubated at 37° C. then spiked with test compound (and positive control); samples were taken at pre-determined time intervals and were analysed to monitor the change in concentration of the initial drug compound over 60 minutes. A buffer incubation reaction (with no hepatocytes present) acted as a negative control and two cocktail solutions, containing compounds with known high and low clearance values (verapamil/7-hydroxycoumarin and propranolol/diltiazem), acted as positive controls. • 1. The assay was run with a cell concentration of 0.5×10^6 cells/mL in Leibovitz buffer. • 2. All compounds and controls were run in duplicate. • 3. Compound concentration was 10 μM. • 4. All compounds and controls were incubated with both cells and buffer to show turnover was due to hepatic metabolism. • 5. All wells on the incubation plate had 326.7 μL of either cells or buffer added. • 6. Prior to assay, cell and buffer-only incubation plates were preincubated for 10 mins at 37° C. • 7. The assay was initiated by adding compounds, 3.3 μL of 1 mM in 10% DMSO—90% Buffer; final DMSO concentration was 0.1%. • 8. Samples were taken at regular timepoints (0, 5, 10, 20, 40, 60 min) until 60 mins. • 9. Sample volume was 40 μL and was added to 160 μL of crash solvent (acetonitrile with internal standard) and stored on ice. • 10. At the end of the assay, the crash plates were centrifuged at 3500 rpm for 20 mins at 4° C. • 11. 80 μL of clear supernatant was removed and mixed with 80 μL of deionised water before being analysed by LC-MS/MS.
(§3) Raw LC-MS/MS data was exported to, and analysed in, Microsoft Excel for determination of intrinsic clearance. The percentage remaining of a compound was monitored using the peak area of the initial concentration as 100%. Intrinsic clearance and half-life values were calculated using a graph of the natural log of percentage remaining versus the time of reaction in minutes.

A short description of data set [3]: Hepatocyte stability assay, human. The format is in vitro ADME. The settings on record: human, hepatocytes; for hepatocyte CLint at 10 μM: Hepatocyte stability Clint; for half-life at 10 μM: Hepatocyte stability T½.
From the text: as §1, §2, §3

In data set [1], `C=C(Cc1nc(CCCCCCCC)cs1)C(=O)O` [Example 38, 2-((4-octylthiazol-2-yl)methyl)acrylic acid] had an IC50 of 7.8 µM. For the same molecule, in data set [2], the hepatocyte CLint at 10 μM came out at 204 µL/min/1e6 cells and the half-life at 10 μM came out at 9 min. Besides, in data set [3], the intrinsic metabolic clearance (hepatocyte CLint) at 10 μM was over 447 µL/min/1e6 cells and the half-life at 10 μM is under 3 min.

Consider `C=C(Cc1nc(Cc2cc(Cl)c(F)c(Cl)c2)no1)C(=O)O` [Example 134, 2-((3-(3,5-dichloro-4-fluorobenzyl)-1,2,4-oxadiazol-5-yl)methyl)acrylic acid], for which the IC50 in data set [1] is 15.8 µM. In addition, the values for the hepatocyte CLint at 10 μM in data set [2] and in data set [3] were 17 µL/min/1e6 cells and 13 µL/min/1e6 cells, respectively. Further, the half-life at 10 μM in data set [2] stood at 75 min; in data set [3], 112 min.

In data set [1], `C=C(Cc1nc(Cc2ccc(CCCC)cc2)co1)C(=O)O` [Example 127, 2-((4-(4-butylbenzyl)oxazol-2-yl)methyl)acrylic acid] yielded an IC50 of 14.6 µM. Also, the results for the hepatocyte CLint at 10 μM in data set [2] and in data set [3] were 478 µL/min/1e6 cells and 245 µL/min/1e6 cells, respectively. Further, the half-life at 10 μM was determined as 3 min in data set [2] and 6 min in data set [3].

On to `C=C(Cc1nc(-c2ccc(C(F)(F)CCC)cc2)no1)C(=O)O` [Example 98, 2-((3-(4-(1,1-difluorobutyl)phenyl)-1,2,4-oxadiazol-5-yl)methyl)acrylic acid], for which the IC50 in data set [1] was found to be 37.2 µM. Besides, in data set [2], the intrinsic clearance (hepatocyte CLint) at 10 μM worked out at 208 µL/min/1e6 cells and the half-life at 10 μM amounted to 6 min. In addition, in data set [3], the hepatocyte CLint at 10 μM is 70 µL/min/1e6 cells and the half-life at 10 μM came out at 23 min.

For `C=C(Cc1noc(C(F)(F)c2ccc(C(F)(F)F)cc2)n1)C(=O)O` [Example 97, 2-((5-(difluoro(4-(trifluoromethyl)phenyl)methyl)-1,2,4-oxadiazol-3-yl)methyl)acrylic acid], the IC50 in data set [1] was 22.1 µM. In addition, in data set [2], the hepatocyte CLint at 10 μM amounted to 79 µL/min/1e6 cells and the half-life at 10 μM is 15 min. In data set [3], the hepatocyte CLint at 10 μM was 13 µL/min/1e6 cells and the half-life at 10 μM worked out at 125 min.

Turning to `C=C(Cc1nc(C(F)(F)c2ccc(Br)c(Cl)c2)no1)C(=O)O` [Example 154, 2-((3-((4-bromo-3-chlorophenyl)difluoromethyl)-1,2,4-oxadiazol-5-yl)methyl)acrylic acid], the 50% inhibitory concentration (IC50) in data set [1] is 9.5 µM. Further, the hepatocyte CLint at 10 μM in data set [2] came to 203 µL/min/1e6 cells; in data set [3] it was 41 µL/min/1e6 cells. Moreover, the values for the half-life at 10 μM in data set [2] and in data set [3] were 7 min and 35 min, respectively.

In data set [1], `C=C(Cc1nc(C2(c3ccc(I)cc3)CC2)no1)C(=O)O` [Example 117, 2-((3-(1-(4-iodophenyl)cyclopropyl)-1,2,4-oxadiazol-5-yl)methyl)acrylic acid] showed an IC50 of 3.4 µM. Further, the values for the intrinsic metabolic clearance (hepatocyte CLint) at 10 μM in data set [2] and in data set [3] were 183 µL/min/1e6 cells and 36 µL/min/1e6 cells, respectively. Also, the values for the half-life at 10 μM in data set [2] and in data set [3] were 7 min and 43 min, respectively.

`C=C(Cc1nc(-c2cccc(CCCC)c2)no1)C(=O)O` [Example 27, 2-((3-(3-butylphenyl)-1,2,4-oxadiazol-5-yl)methyl)acrylic acid] registered a 50% inhibitory concentration (IC50) in data set [1] of 29.6 µM. Also, the hepatocyte CLint at 10 μM stood at 281 µL/min/1e6 cells in data set [2] and 156 µL/min/1e6 cells in data set [3]. The values for the half-life at 10 μM in data set [2] and in data set [3] were 5 min and 8 min, respectively.

Turning to `C=C(Cc1nc(-c2ccc(OCc3ccccc3)cc2)no1)C(=O)O` [Example 100, 2-((3-(4-(benzyloxy)phenyl)-1,2,4-oxadiazol-5-yl)methyl)acrylic acid], the IC50 in data set [1] came to 25.8 µM. Also, in data set [2], the hepatocyte CLint at 10 μM was over 460 µL/min/1e6 cells and the half-life at 10 μM was under 3 min. Moreover, in data set [3], the hepatocyte CLint at 10 μM turned out to be 77 µL/min/1e6 cells and the half-life at 10 μM was 19 min.

For `C=C(Cc1nc(Cc2ccc(C3CCC3)cc2)no1)C(=O)O` [Example 128, 2-((3-(4-cyclobutylbenzyl)-1,2,4-oxadiazol-5-yl)methyl)acrylic acid], the half-inhibitory concentration (IC50) in data set [1] is 26.3 µM. For the same molecule, in data set [2], the intrinsic metabolic clearance (hepatocyte CLint) at 10 μM was 256 µL/min/1e6 cells and the half-life at 10 μM worked out at 6 min. In data set [3], the hepatocyte CLint at 10 μM was 49 µL/min/1e6 cells and the half-life at 10 μM was found to be 30 min.

`C=C(Cc1nc(C(F)(F)c2ccc(I)cc2)no1)C(=O)O` [Example 120, 2-((3-(difluoro(4-iodophenyl)methyl)-1,2,4-oxadiazol-5-yl)methyl)acrylic acid]: the 50% inhibitory concentration (IC50) in data set [1] is 3.6 µM. For the same molecule, in data set [2], the hepatocyte CLint at 10 μM turned out to be 66 µL/min/1e6 cells and the half-life at 10 μM came out at 20 min. Further, in data set [3], the intrinsic metabolic clearance (hepatocyte CLint) at 10 μM stood at 10 µL/min/1e6 cells and the half-life at 10 μM came to 154 min.

Take `C=C(Cc1ccc(CCCCCCCC)nn1)C(=O)O` [Example 116]: the IC50 in data set [1] was 27.9 µM. In data set [2], the hepatocyte CLint at 10 μM came to 290 µL/min/1e6 cells and the half-life at 10 μM was 5 min. Further, in data set [3], the hepatocyte CLint at 10 μM is 60 µL/min/1e6 cells and the half-life at 10 μM is 25 min.

With `C=C(Cc1nc(C(F)(F)c2ccc(S(F)(F)(F)(F)F)cc2)no1)C(=O)O` [Example 124, 2-((3-(difluoro(4-(pentafluoro-λ^6-sulfaneyl)phenyl)methyl)-1,2,4-oxadiazol-5-yl)methyl)acrylic acid], the IC50 in data set [1] worked out at 16.6 µM. Besides, in data set [2], the hepatocyte CLint at 10 μM amounted to 55 µL/min/1e6 cells and the half-life at 10 μM came out at 27 min. Besides, in data set [3], the intrinsic metabolic clearance (hepatocyte CLint) at 10 μM was 14 µL/min/1e6 cells and the half-life at 10 μM is 105 min.

In data set [1], `C=C(Cc1nc(Cc2ccc(C3(CCC)CC3)cc2)no1)C(=O)O` [Example 147, 2-((3-(4-(1-propylcyclopropyl)benzyl)-1,2,4-oxadiazol-5-yl)methyl)acrylic acid] returned an IC50 of 29.9 µM. Besides, in data set [2], the hepatocyte CLint at 10 μM is over 460 µL/min/1e6 cells and the half-life at 10 μM is under 3 min. In data set [3], the hepatocyte CLint at 10 μM was determined as 67 µL/min/1e6 cells and the half-life at 10 μM was found to be 22 min.

`C=C(Cc1nc(C2(c3ccc(C4CCC4)cc3)CC2)no1)C(=O)O` [Example 131, 2-((3-(1-(4-cyclobutylphenyl)cyclopropyl)-1,2,4-oxadiazol-5-yl)methyl)acrylic acid] showed an IC50 in data set [1] of 7.9 µM. In data set [2], the hepatocyte CLint at 10 μM is 139 µL/min/1e6 cells and the half-life at 10 μM was determined as 11 min. In data set [3], the hepatocyte CLint at 10 μM was determined as 34 µL/min/1e6 cells and the half-life at 10 μM was 43 min.

`C=C(Cc1nc(C2(c3ccc(OC4CCC4)cc3)CC2)no1)C(=O)O` [Example 111, 2-((3-(1-(4-cyclobutoxyphenyl)cyclopropyl)-1,2,4-oxadiazol-5-yl)methyl)acrylic acid]: half-maximal inhibition in data set [1] (IC50) required 31.4 µM. For the same molecule, in data set [2], the hepatocyte CLint at 10 μM was 382 µL/min/1e6 cells and the half-life at 10 μM came out at 3 min. Moreover, in data set [3], the hepatocyte CLint at 10 μM stood at 23 µL/min/1e6 cells and the half-life at 10 μM was 71 min.

On to `C=C(Cc1nc(C2(c3ccc(Br)c(Cl)c3)CC2)no1)C(=O)O` [Example 138, 2-((3-(1-(4-bromo-3-chlorophenyl)cyclopropyl)-1,2,4-oxadiazol-5-yl)methyl)acrylic acid], for which the concentration for half-maximal inhibition (IC50) in data set [1] stood at 3 µM. Moreover, in data set [2], the hepatocyte CLint at 10 μM was over 460 µL/min/1e6 cells and the half-life at 10 μM was under 3 min. In addition, in data set [3], the intrinsic clearance (hepatocyte CLint) at 10 μM turned out to be 96 µL/min/1e6 cells and the half-life at 10 μM came to 15 min.

On to `C=C(Cc1cnc(CCCCCCCC)cn1)C(=O)O` [Example 113], for which 20.1 µM corresponded to half-maximal inhibition in data set [1] (IC50). In addition, in data set [2], the intrinsic metabolic clearance (hepatocyte CLint) at 10 μM is over 460 µL/min/1e6 cells and the half-life at 10 μM is under 3 min. Also, in data set [3], the intrinsic clearance (hepatocyte CLint) at 10 μM amounted to 290 µL/min/1e6 cells and the half-life at 10 μM worked out at 5 min.
